From PubChem BioAssay (NCI)
Several values for one entry are separate records, joined by “and”; a condition that tells them apart may be missing. Equal values may be shown once. Where a name gives a salt, the structure may show the parent alone.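 Test compounds were applied to cells in 96-well plates for 48 hours at 5 doses. GI50: concentration for 50% inhibition of growth. TGI: concentration producing complete growth inhibition.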 *1 amine or outer side, *2 acyl side, *3 side chain or, on linkers, in order; H or OH if unused. Where a SMILES comes first, the peptide text is derived from it. [ ]: non-standard residue; d: D form. The star is where a group is joined. X31 = CC(=O)N(C)SCC(N[*:1])C(=O)[*:2]; X47 = CC(=O)N(C)SCC(N*)/C(O)=N\O; Cbz = O=C(OCc1ccccc1)*; Tfa = O=C(C(F)(F)F)*; Bn = c1ccc(C*)cc1; For = O=C*

Legend:
Assay in all cases: inhibition of tumour cell growth, NCI panel, 48 h; in the data active means GI50 below about 0.43 µM; inactive means the rest
[1] = tested on: OVCAR-8 ovarian
[2] = tested on: NCI-H226 lung
[3] = tested on: MDA-MB-231 breast
[4] = tested on: HOP-62 NSCLC
[5] = tested on: A498 renal
[6] = tested on: NCI-H460 lung
[7] = tested on: SF-268 CNS
[8] = tested on: 786-0 renal
[9] = tested on: SF-295 CNS
[10] = tested on: HOP-92 NSCLC
[11] = tested on: CCRF-CEM leukemia
[12] = tested on: NCI-H23 lung
[13] = tested on: UACC-257 melanoma
[14] = tested on: U251 CNS
[15] = tested on: HCC-2998 colon
[16] = tested on: HCT-15 colon

Nc1cc2c3c(c1)Oc1cc(N)cc4c1C3c1c(cc(N)cc1O4)O2
> 85.1 µM: TGI [13]
> 66.5 µM: TGI [12]
> 31.6 µM: TGI [16]
> 100 µM: TGI [5] | TGI [6] | TGI [10] | TGI [14] | TGI [15]
34 µM: TGI [1]
> 86.5 µM: TGI [8]
12.8 µM: TGI [2]
> 96.6 µM: TGI [9]
> 88.1 µM: TGI [4]
81.5 µM: TGI [11]
25 µM: TGI [7]
53.8 µM: TGI [3]

CC(=O)ON(C(C)=O)c1ccc(-c2nc3ccccc3s2)cc1
> 100 µM: TGI [6] | TGI [7] | TGI [11]
> 58 µM: TGI [1]
> 55.8 µM: TGI [4]
41.9 µM: TGI [15]
> 81.6 µM: TGI [10]
> 91.5 µM: TGI [3]
> 90.8 µM: TGI [12]
> 57.5 µM: TGI [8]
> 76.4 µM: TGI [9]
> 83.5 µM: TGI [13]
> 68.4 µM: TGI [16]
> 60.9 µM: TGI [14]
27.7 µM: TGI [2]
> 67.2 µM: TGI [5]

O=C(Nn1c(-c2ccccc2)nc2ccccc2c1=O)c1ccc(CS)cc1
96.1 µM: TGI [3]
99.8 µM: TGI [5]
50.5 µM: TGI [8]
39.3 µM: TGI [11]
> 100 µM: TGI [1] | TGI [2] | TGI [4] | TGI [6] | TGI [7] | TGI [9] | TGI [10] | TGI [12] | TGI [13] | TGI [14] | TGI [15]

CC[C@]1(O)C[C@H]2CN(CCc3c([nH]c4ccccc34)[C@@](C(=O)OC)(c3cc4c(cc3OC)N(C=O)[C@H]3[C@@](O)(C(=O)OC)[C@H](OC(C)=O)[C@]5(CC)C=CCN6CC[C@]43[C@@H]65)C2)C1
56.9 µM and 142 µM: TGI [4]
1.19 µM and 3.07 µM and 6.57 µM: TGI [10]
8.13 µM and 31.2 µM and 79.2 µM: TGI [7]
1.66 µM and 2.53 µM and 16.6 µM: TGI [14]
0.775 µM and 2.35 µM: TGI [6]
0.141 µM and 0.536 µM: TGI [9]
active: GI50 [3] 0.00138 µM | GI50 [5] 0.00192 µM | GI50 [6] < 0.001 µM | GI50 [12] < 0.001 µM

COc1cc(C2SCC(=O)N2c2cc(Cl)c(Cl)cc2Cl)cc(OC)c1OC (stereo unspecified)
> 100 µM: TGI [1] | TGI [2] | TGI [3] | TGI [5] | TGI [6] | TGI [7] | TGI [8] | TGI [9] | TGI [10] | TGI [12] | TGI [13] | TGI [14] | TGI [15] | TGI [16]
77.6 µM: TGI [11]

Nc1ccc(S(=O)(=O)Nc2nnc(S(N)(=O)=O)s2)cc1
> 100 µM: TGI [2] | TGI [3] | TGI [5] | TGI [6] | TGI [7] | TGI [8] | TGI [9] | TGI [10] | TGI [12] | TGI [14] | TGI [15] | TGI [16]

Oc1ccc(-c2csc(NNC3=NC/C(=C/c4ccc5c(c4)OCO5)S3)n2)cc1O
> 100 µM: TGI [1] | TGI [2] | TGI [3] | TGI [4] | TGI [6] | TGI [8] | TGI [9] | TGI [10] | TGI [13] | TGI [14] | TGI [15] | TGI [16]
47.7 µM: TGI [12]

CC(=O)N(C)SCC(NC(=O)C(Cc1ccccc1)NC(=O)OCc1ccccc1)C(=O)NC(Cc1ccccc1)C(=O)NC(Cc1cn(C=O)c2ccccc12)C(=O)NC(CCCCNC(=O)OCc1ccccc1)C(=O)NC(C(=O)NC(CSN(C)C(C)=O)/C(O)=N\O)C(C)OCc1ccccc1 (stereo unspecified) (Cbz-F[X31]FW(For)K(Cbz)T(Bn)-X47; configuration not given here)
> 100 µM: TGI [1] | TGI [2] | TGI [3] | TGI [4] | TGI [6] | TGI [7] | TGI [8] | TGI [9] | TGI [10] | TGI [11] | TGI [12] | TGI [13] | TGI [14] | TGI [15] | TGI [16]

CCOC(=O)C1(C(N)=O)C(=O)c2ccncc2C1=O (stereo unspecified)
> 100 µM: TGI [1] | TGI [2] | TGI [3] | TGI [5] | TGI [6] | TGI [7] | TGI [8] | TGI [9] | TGI [10] | TGI [11] | TGI [12] | TGI [13] | TGI [14] | TGI [15] | TGI [16]

COc1ccccc1/C=C/C1=NN(c2cccc(S(=O)(=O)O)c2)C2(C1)SCC(=O)N2c1nc2ccccc2s1 (stereo unspecified)
90 µM: TGI [11]
> 100 µM: TGI [1] | TGI [2] | TGI [3] | TGI [5] | TGI [6] | TGI [7] | TGI [8] | TGI [10] | TGI [12] | TGI [13] | TGI [14] | TGI [15] | TGI [16]

O=S(=O)(O)c1c(Cl)cc(O)c2ncccc12
> 100 µM: TGI [1] | TGI [2] | TGI [3] | TGI [4] | TGI [5] | TGI [6] | TGI [8] | TGI [9] | TGI [10] | TGI [11] | TGI [12] | TGI [13] | TGI [14] | TGI [15] | TGI [16]

COc1cc(C=O)ccc1Oc1nnnn1-c1ccccc1
56.7 µM: TGI [2]
52.4 µM: TGI [11]
> 100 µM: TGI [1] | TGI [3] | TGI [4] | TGI [6] | TGI [7] | TGI [8] | TGI [9] | TGI [10] | TGI [12] | TGI [13] | TGI [14] | TGI [16]

COc1ccc2nc3cc(Cl)ccc3c(NCCCN(Cc3cc(OC)c(OC)c(OC)c3)Cc3cc(OC)c(OC)c(OC)c3)c2c1
25.5 µM: TGI [1]
23.6 µM: TGI [6]
12.1 µM: TGI [9]
23.7 µM: TGI [10]
10.6 µM: TGI [3]
28.8 µM: TGI [13]
37.3 µM: TGI [15]
17.3 µM: TGI [14]
32.1 µM: TGI [8]
34.5 µM: TGI [2]
41.7 µM: TGI [7]
24.4 µM: TGI [4]

O=C(/C=C1\N=C(c2ccccc2)N(c2nc3ccc(Sc4ccccc4)cc3[nH]2)C1=O)/C=C/c1ccccc1
81.3 µM: TGI [14]
32.5 µM: TGI [15]
53.8 µM: TGI [3]
> 100 µM: TGI [1] | TGI [4] | TGI [5] | TGI [6] | TGI [7] | TGI [8] | TGI [9] | TGI [10] | TGI [11] | TGI [12] | TGI [13] | TGI [16]

O=C(O)CC(NC(=O)C(F)(F)F)C(=O)NC(Cc1ccc(O)cc1)C(=O)O (stereo not drawn) (Tfa-Asp-Tyr-OH; configuration not given here)
> 50 µM: TGI [1] | TGI [2] | TGI [3] | TGI [4] | TGI [6] | TGI [7] | TGI [8] | TGI [9] | TGI [10] | TGI [12] | TGI [13] | TGI [14] | TGI [15] | TGI [16]
